In the supplement of paper PMC10307832:

How the values were obtained:
Experiment in all cases: relative viability (nuclei count vs DMSO), 5 days (fraction); higher = more cells survive
[1] = test system: EMC-BAC-2
Outline: (§1)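 After 5 days of treatment, lung cancer cells in 1536-well plates were fixed and stained in a single step (final 0.05% Triton X-100, 1% formaldehyde, 1 ug/ml Hoechst) and their nuclei counted on 4× images. Treatment had been applied by pin tool the day after seeding as one drug alone or as a fixed anchor-drug dose with five library-drug doses (not always all listed) in √10 steps. Relative viability is the nuclei count of treated wells divided by that of vehicle wells, and values are medians of duplicate plates.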

[2] = test system: EPLC-272H
Outline: as §1

[3] = test system: H3255
Outline: as §1

[4] = test system: HOP-62
Outline: as §1

[5] = test system: LCLC-97TM1
Outline: as §1

[6] = test system: LXF-289
Outline: as §1

[7] = test system: NCI-H1563
Outline: as §1

[8] = test system: NCI-H1650
Outline: as §1

[9] = test system: NCI-H1915
Outline: as §1

[10] = test system: NCI-H1993
Outline: as §1

[11] = test system: NCI-H2009
Outline: as §1

[12] = test system: NCI-H2023
Outline: as §1

[13] = test system: NCI-H2085
Outline: as §1

[14] = test system: NCI-H2126
Outline: as §1

[15] = test system: NCI-H2342
Outline: as §1

[16] = test system: NCI-H2347
Outline: as §1

[17] = test system: NCI-H322M
Outline: as §1

[18] = test system: NCI-H647
Outline: as §1

[19] = test system: NCI-H661
Outline: as §1

[20] = test system: NCI-H727
Outline: as §1

[21] = test system: PC-14
Outline: as §1

[22] = test system: SK-LU-1
Outline: as §1

[23] = test system: SW 1573
Outline: as §1

Question: With O=C(O)c1ccc(-c2c[nH]c3ncc(-c4ccccc4)cc23)cc1C1CCCC1 + Cc1nc(Nc2ncc(C(=O)Nc3c(C)cccc3Cl)s2)cc(N2CCN(CCO)CC2)n1 [Dasatinib] (partner 0.075 µM) as the compound, how does the relative viability ([1]; first compound 0.04 µM) read?
Answer: Its relative viability is 0.285.

Question: And the relative viability ([1]; first compound 0.1265 µM)?
Answer: The relative viability was 0.31.

Question: What about the relative viability ([1]; first compound 0.4 µM) of the same compound?
Answer: The relative viability was 0.323.

Question: And the relative viability ([1]; first compound 1.265 µM)?
Answer: The relative viability was 0.294.

Question: And the relative viability ([2]; first compound 0.04 µM)?
Answer: The relative viability was 0.331.

Question: And the relative viability ([2]; first compound 0.1265 µM)?
Answer: The relative viability was 0.416.

Question: What about the relative viability ([2]; first compound 0.4 µM) of the same compound?
Answer: The relative viability was 0.328.

Question: And the relative viability ([2]; first compound 1.265 µM)?
Answer: Its relative viability is 0.337.

Question: And the relative viability ([3]; first compound 0.04 µM)?
Answer: The relative viability was 0.378.

Question: And the relative viability ([3]; first compound 0.1265 µM)?
Answer: Its relative viability is 0.6.

Question: What about the relative viability ([3]; first compound 0.4 µM) of the same compound?
Answer: Its relative viability is 0.348.

Question: And the relative viability ([3]; first compound 1.265 µM)?
Answer: Its relative viability is 0.473.

Question: What about the relative viability ([4]; first compound 0.04 µM) of the same compound?
Answer: The relative viability was 0.598.

Question: What about the relative viability ([4]; first compound 0.1265 µM) of the same compound?
Answer: The relative viability was 0.669.

Question: What about the relative viability ([4]; first compound 0.4 µM) of the same compound?
Answer: Its relative viability is 0.78.

Question: And the relative viability ([4]; first compound 1.265 µM)?
Answer: The relative viability was 0.666.

Question: What about the relative viability ([5]; first compound 0.04 µM) of the same compound?
Answer: The relative viability was 0.836.

Question: What about the relative viability ([5]; first compound 0.1265 µM) of the same compound?
Answer: The relative viability was 0.893.

Question: What about the relative viability ([5]; first compound 0.4 µM) of the same compound?
Answer: Its relative viability is 0.881.

Question: What about the relative viability ([5]; first compound 1.265 µM) of the same compound?
Answer: Its relative viability is 0.686.

Question: What about the relative viability ([6]; first compound 0.04 µM) of the same compound?
Answer: The relative viability was 0.214.

Question: And the relative viability ([6]; first compound 0.1265 µM)?
Answer: The relative viability was 0.258.

Question: What about the relative viability ([6]; first compound 0.4 µM) of the same compound?
Answer: The relative viability was 0.181.

Question: What about the relative viability ([6]; first compound 1.265 µM) of the same compound?
Answer: Its relative viability is 0.206.

Question: And the relative viability ([7]; first compound 0.04 µM)?
Answer: Its relative viability is 0.455.

Question: And the relative viability ([7]; first compound 0.1265 µM)?
Answer: Its relative viability is 0.514.

Question: And the relative viability ([7]; first compound 0.4 µM)?
Answer: Its relative viability is 0.48.

Question: And the relative viability ([7]; first compound 1.265 µM)?
Answer: Its relative viability is 0.48.

Question: What about the relative viability ([8]; first compound 0.04 µM) of the same compound?
Answer: Its relative viability is 0.312.

Question: And the relative viability ([8]; first compound 0.1265 µM)?
Answer: Its relative viability is 0.357.

Question: And the relative viability ([8]; first compound 0.4 µM)?
Answer: The relative viability was 0.37.

Question: And the relative viability ([8]; first compound 1.265 µM)?
Answer: Its relative viability is 0.308.

Question: What about the relative viability ([9]; first compound 0.04 µM) of the same compound?
Answer: The relative viability was 0.297.

Question: What about the relative viability ([9]; first compound 0.1265 µM) of the same compound?
Answer: The relative viability was 0.331.

Question: And the relative viability ([9]; first compound 0.4 µM)?
Answer: The relative viability was 0.277.

Question: And the relative viability ([9]; first compound 1.265 µM)?
Answer: The relative viability was 0.271.

Question: And the relative viability ([10]; first compound 0.04 µM)?
Answer: The relative viability was 0.592.

Question: And the relative viability ([10]; first compound 0.1265 µM)?
Answer: The relative viability was 0.568.

Question: And the relative viability ([10]; first compound 0.4 µM)?
Answer: Its relative viability is 0.601.

Question: And the relative viability ([10]; first compound 1.265 µM)?
Answer: Its relative viability is 0.572.

Question: And the relative viability ([11]; first compound 0.04 µM)?
Answer: The relative viability was 0.322.

Question: What about the relative viability ([11]; first compound 0.1265 µM) of the same compound?
Answer: The relative viability was 0.312.

Question: What about the relative viability ([11]; first compound 0.4 µM) of the same compound?
Answer: Its relative viability is 0.277.

Question: What about the relative viability ([11]; first compound 1.265 µM) of the same compound?
Answer: Its relative viability is 0.264.

Question: What about the relative viability ([12]; first compound 0.04 µM) of the same compound?
Answer: Its relative viability is 0.575.

Question: What about the relative viability ([12]; first compound 0.1265 µM) of the same compound?
Answer: Its relative viability is 0.738.

Question: And the relative viability ([12]; first compound 0.4 µM)?
Answer: The relative viability was 0.603.

Question: And the relative viability ([12]; first compound 1.265 µM)?
Answer: The relative viability was 0.515.

Question: And the relative viability ([13]; first compound 0.04 µM)?
Answer: Its relative viability is 0.259.

Question: And the relative viability ([13]; first compound 0.1265 µM)?
Answer: Its relative viability is 0.268.

Question: What about the relative viability ([13]; first compound 0.4 µM) of the same compound?
Answer: Its relative viability is 0.307.

Question: What about the relative viability ([13]; first compound 1.265 µM) of the same compound?
Answer: The relative viability was 0.247.

Question: And the relative viability ([14]; first compound 0.04 µM)?
Answer: The relative viability was 0.641.

Question: And the relative viability ([14]; first compound 0.1265 µM)?
Answer: Its relative viability is 0.634.

Question: And the relative viability ([14]; first compound 0.4 µM)?
Answer: The relative viability was 0.642.

Question: And the relative viability ([14]; first compound 1.265 µM)?
Answer: The relative viability was 0.488.

Question: And the relative viability ([15]; first compound 0.04 µM)?
Answer: The relative viability was 0.34.

Question: And the relative viability ([15]; first compound 0.1265 µM)?
Answer: The relative viability was 0.377.

Question: What about the relative viability ([15]; first compound 0.4 µM) of the same compound?
Answer: The relative viability was 0.325.

Question: What about the relative viability ([15]; first compound 1.265 µM) of the same compound?
Answer: Its relative viability is 0.289.

Question: And the relative viability ([16]; first compound 0.04 µM)?
Answer: The relative viability was 0.275.

Question: What about the relative viability ([16]; first compound 0.1265 µM) of the same compound?
Answer: The relative viability was 0.799.

Question: What about the relative viability ([16]; first compound 0.4 µM) of the same compound?
Answer: Its relative viability is 0.298.

Question: What about the relative viability ([16]; first compound 1.265 µM) of the same compound?
Answer: Its relative viability is 0.299.

Question: What about the relative viability ([17]; first compound 0.04 µM) of the same compound?
Answer: The relative viability was 0.277.

Question: What about the relative viability ([17]; first compound 0.1265 µM) of the same compound?
Answer: Its relative viability is 0.267.

Question: What about the relative viability ([17]; first compound 0.4 µM) of the same compound?
Answer: The relative viability was 0.239.

Question: What about the relative viability ([17]; first compound 1.265 µM) of the same compound?
Answer: The relative viability was 0.237.

Question: And the relative viability ([18]; first compound 0.04 µM)?
Answer: Its relative viability is 0.172.

Question: What about the relative viability ([18]; first compound 0.1265 µM) of the same compound?
Answer: Its relative viability is 0.24.

Question: And the relative viability ([18]; first compound 0.4 µM)?
Answer: The relative viability was 0.178.

Question: What about the relative viability ([18]; first compound 1.265 µM) of the same compound?
Answer: The relative viability was 0.139.

Question: And the relative viability ([19]; first compound 0.04 µM)?
Answer: The relative viability was 0.852.

Question: And the relative viability ([19]; first compound 0.1265 µM)?
Answer: Its relative viability is 1.1.

Question: What about the relative viability ([19]; first compound 0.4 µM) of the same compound?
Answer: Its relative viability is 0.792.

Question: What about the relative viability ([19]; first compound 1.265 µM) of the same compound?
Answer: Its relative viability is 0.797.

Question: And the relative viability ([20]; first compound 0.04 µM)?
Answer: Its relative viability is 0.298.

Question: And the relative viability ([20]; first compound 0.1265 µM)?
Answer: The relative viability was 0.398.

Question: What about the relative viability ([20]; first compound 0.4 µM) of the same compound?
Answer: Its relative viability is 0.442.

Question: And the relative viability ([20]; first compound 1.265 µM)?
Answer: The relative viability was 0.364.

Question: What about the relative viability ([21]; first compound 0.04 µM) of the same compound?
Answer: Its relative viability is 0.245.

Question: What about the relative viability ([21]; first compound 0.1265 µM) of the same compound?
Answer: The relative viability was 0.258.

Question: And the relative viability ([21]; first compound 0.4 µM)?
Answer: Its relative viability is 0.281.

Question: And the relative viability ([21]; first compound 1.265 µM)?
Answer: Its relative viability is 0.286.

Question: And the relative viability ([22]; first compound 0.04 µM)?
Answer: The relative viability was 0.169.

Question: And the relative viability ([22]; first compound 0.1265 µM)?
Answer: Its relative viability is 0.194.

Question: And the relative viability ([22]; first compound 0.4 µM)?
Answer: Its relative viability is 0.157.

Question: And the relative viability ([22]; first compound 1.265 µM)?
Answer: The relative viability was 0.165.

Question: What about the relative viability ([23]; first compound 0.04 µM) of the same compound?
Answer: The relative viability was 0.398.

Question: And the relative viability ([23]; first compound 0.1265 µM)?
Answer: Its relative viability is 0.542.

Question: What about the relative viability ([23]; first compound 0.4 µM) of the same compound?
Answer: Its relative viability is 0.455.

Question: What about the relative viability ([23]; first compound 1.265 µM) of the same compound?
Answer: The relative viability was 0.392.
